Data: article PMC4001449, “Thienoquinolines as Novel Disruptors of the PKCε/RACK2 Protein–Protein Interaction” (Journal of Medicinal Chemistry, 2014)

Tested on: MARCKS phosphorylation
Experiment: MARCKS phosphorylation in HeLa cells (Western blot)
Assay type: cell-based
Conditions: 50 μM for 30 min, 100 nM TPA last 10 min
Procedure: Figure 6 Compound 8 inhibits MARCKS phosphorylation, cell proliferation, and invasion following treatment with 8. (A) HeLa cells were starved for 16 h in medium without fetal calf serum. Subsequently, they were treated with 50 μM solution of compound 8 for 30 min and 100 nM TPA for the last 10 min. An amount of 150 μg of protein from lysed cells was loaded onto SDS 8–16% gels. Tubulin was used as loading control. Below a representative blot, a bar graph corresponding to quantitative scans of three independent experiments (±SD) is shown. (B) Cell proliferation following treatment of HeLa and PC-3 cells with 8. The mean values (±SD) of three independent experiments, in which three samples were taken within each experiment, are shown. (C) Invasion of cells through a membrane. Cell invasion was determined as described in Experimental Section. In HeLa cells with a doxycycline-inducible PKCε the expression of PKCε was induced with doxycycline (control + Dox). The mean of three experiments (±SD) is shown: (∗) p = 0.03. The data are normalized to the control (100%). Therefore, the standard deviation for the control is 0.
For PKCε translocation PC-3 cells were starved for 16 h, treated with 8 for 30 min, stimulated with 50 nM TPA for 5 min, lysed, and fractionated with a CNMCS/CNM compartmental protein extraction kit (BioChain Institute, Newark, CA). […]

## CC(=O)c1cccc(NC(=O)c2sc3nc4cc5c(cc4cc3c2N)OCCO5)c1 [Compound 8, N-(3-acetylphenyl)-9-amino-2,3-dihydro-1,4-dioxino[2,3-g]thieno[2,3-b]quinoline-8-carboxamide]
  Phosphorylation of MARCKS: inhibited
